Results published in patent publication US10058533B2, “Pharmaceutical composition containing Ginkgolide B and Xa factor inhibitor, preparation method thereof and use thereof” (CHENGDU BAIYU PHARMACEUTICAL CO., LTD, priority 2014, dated 2018).

Tests used:
[1] = test system: coagulation function (aPTT); assay: aPTT of coagulation function, rabbit wound-limb deep venous thrombosis forming model; assay type: in vivo; details: for aPPT: 5 mg/kg i.g., x ± SD
Method: (§1) Eight were taken as control group and the rest were treated by a striking device. Striking area was a round surface with the diameter of 1.5 cm, the wounding energy was calculated according to Ep=mgh, and the energy of each striking of the iron rod is 7.5 J.
(§2) Specifically: the rabbit was anesthetized by intravenous injection of 3% pentobarbital sodium at ear edge with the dose of 1 ml/kg. The rabbit was kept laying down at right side prostrate position and the left thigh was set on the striking platform. Found the trochanter of the left femur and set the striking head attached to area from the trochanter to the 1.5 cm below. The self-made striking device was used for striking the outer side of the thigh near-end, and the plaster was used for fixing the left limb on the hip/knee-bending area. When the plaster bandage was applied and the right hip was examined to move freely, the rabbit was kept to lay down until solidification. After the model establishment, the animal was allowed to drink water normally and was fed with granular food. No anticoagulant or antibiotic was used.
(§3) Animals were grouped after modeling. The drug was fed according to table 4 via oral gavage, once a day for 7 days continuously.
(§4) At 0.5, 1.0, 2.0, 3.0 and 4.0 h after the first administration, blood was taken from ear central artery. Plasma was separated and aPPT, PT and the anti-factor Xa activity were determined on an automatic coagulation detector.

[2] = test system: coagulation function (PT); assay: PT of coagulation function, rabbit wound-limb deep venous thrombosis forming model; assay type: in vivo; details: 5 mg/kg i.g., x ± SD
Method: as §1, §2, §3, §4

[3] = test system: PAF (Platelet activating factor); assay: Plasma PAF content by ELISA, rabbit wound-limb deep venous thrombosis forming model; assay type: in vivo; details: for PAF content (x ± SD): rabbit wound-limb deep venous thrombosis model, *p<0.05, **p<0.01, ***p<0.001 vs model group
Method: as §2, with “Eight were taken as control group and the rest were treated by a striking device. […] Specifically:” for “Specifically:”, “Found the trochanter of the left femur and set the striking head attached to area from the trochanter to the 1.5 cm below.” left out, “used. Animals were grouped after modeling. The drug was fed according to table 4 via oral gavage, once a day for 7 days continuously. At 0.5, 1.0, 2.0, 3.0 and 4.0 h after the first administration, blood was taken from ear central artery. Plasma was separated and the content of PAF was determined by ELISA.” for “used.”

factor Xa [4] = assay: Anti-coagulation factor Xa activity in vitro (chromogenic substrate assay); assay type: biochemical, rabbit
Method: A chromogenic substrate assay was adopted, and plasma anti-Xa activity was determined on a microplate reader according to a kit specification and reference documents.

factor Xa [5] = assay: Plasma anti-factor Xa activity, rabbit wound-limb deep venous thrombosis forming model; assay type: in vivo
Method: as §1, §2, §3, §4

[6] = test system: venous thromboembolism (VTE); details: cited from earlier work
[7] = in vivo; cited from earlier work
[8] = plasma, 5 mg/kg i.g., 0.5 h after administration, x ± SD
[9] = plasma, 5 mg/kg i.g., 1 h after administration, x ± SD
[10] = plasma, 5 mg/kg i.g., 2 h after administration, x ± SD
[11] = plasma, 5 mg/kg i.g., 3 h after administration, x ± SD
[12] = plasma, 5 mg/kg i.g., 4 h after administration, x ± SD

| Molecule | aPPT ([1]; 0.5 h after administration) [s] | aPPT ([1]; 1 h after administration) [s] | aPPT ([1]; 2 h after administration) [s] | aPPT ([1]; 3 h after administration) [s] | aPPT ([1]; 4 h after administration) [s] | aPTT compared with model group ([1]; 1 h after administration) | PT ([2]; 0.5 h after administration) [s] | PT ([2]; 1 h after administration) [s] | PT ([2]; 2 h after administration) [s] | PT ([2]; 3 h after administration) [s] | PT ([2]; 4 h after administration) [s] | PAF content (x ± SD) ([3]; 1 h after administration) [ng/L] | PAF content (x ± SD) ([3]; 3 h after administration) [ng/L] | anti-factor Xa activity (factor Xa [4]) [IU/ml] | anti-factor Xa activity (factor Xa [5]; [8]) [IU/ml] | anti-factor Xa activity (factor Xa [5]; [9]) [IU/ml] | anti-factor Xa activity (factor Xa [5]; [10]) [IU/ml] | anti-factor Xa activity (factor Xa [5]; [11]) [IU/ml] | anti-factor Xa activity (factor Xa [5]; [12]) [IU/ml] | PAF content compared to model group ([3]; 4 h after administration) | also measured |
| --- | --- | --- | --- | --- | --- | --- | --- | --- | --- | --- | --- | --- | --- | --- | --- | --- | --- | --- | --- | --- | --- |
| CN1CCc2nc(C(=O)N[C@@H]3C[C@@H](C(=O)N(C)C)CC[C@@H]3NC(=O)C(=O)Nc3ccc(Cl)cn3)sc2C1 [Edoxaban] | 26.77 ± 7.65 | 25.01 ± 9.52 | 33.63 ± 5.45 | 36.47 ± 9.12 | 27.20 ± 6.31 | no obvious extension | 6.73 ± 0.15 | 6.14 ± 0.26 | 6.28 ± 0.42 | 6.45 ± 0.65 | 6.42 ± 0.34 | 1236.72 ± 301.62 | 1623.43 ± 256.35 |  |  |  |  |  |  |  |  |
| CN(C)Cc1nccn1-c1ccc(NC(=O)c2cc(C(F)(F)F)nn2-c2ccc3onc(N)c3c2)c(F)c1 [Razaxaban] | 20.13 ± 6.74 | 26.23 ± 8.43 | 22.33 ± 4.46 | 35.75 ± 8.68 | 29.65 ± 9.72 | no obvious extension | 6.71 ± 0.25 | 7.41 ± 0.51 | 6.47 ± 0.25 | 6.47 ± 0.41 | 6.70 ± 0.25 | 1501.29 ± 131.10 | 1641.26 ± 242.32 | 0.86 | 0.20 ± 0.14 | 0.18 ± 0.05 | 0.23 ± 0.08 | 1.31 ± 0.30 | 1.32 ± 0.09 | decreased significantly | PAF content (x ± SD) ([3]; 0.5 h after administration): 889.42 ± 326.32 ng/L; VTE occurrence rate compared with enoxaparin ([6]; patients taking Razaxaban 25 mg, total knee replacement): significantly lower; occurrence rate of large bleeding compared with enoxaparin ([6]; patients taking Razaxaban 25 mg): similar; large bleeding compared with Enoxaparin ([6]; patients taking Razaxaban 50-100 mg): more likely to have large bleeding |
| CC1C(=O)OC2C(O)C34C5CC(C(C)(C)C)C36C(OC(=O)C6O)OC4(C(=O)O5)C12O (centres unmarked) [Ginkgolide B] | 25.89 ± 8.15 | 30.65 ± 6.79 | 25.83 ± 5.96 | 34.30 ± 6.56 | 31.92 ± 7.77 | obviously extended | 6.76 ± 0.32 | 6.79 ± 0.27 | 6.75 ± 0.36 | 6.72 ± 0.24 | 6.68 ± 0.23 | 1255.71 ± 300.73 | 1656.43 ± 259.36 | 0.57 | 0.08 ± 0.07 | 0.10 ± 0.10 | 0.35 ± 0.22 | 0.74 ± 0.15 | 0.65 ± 0.12 |  | anti-factor Xa activity (factor Xa [5]; 0.5 h-4 h after administration): increased with time; PAF content compared to model group ([3]; 2 h after administration): decreased significantly |
| O=C(NC[C@H]1CN(c2ccc(N3CCOCC3=O)cc2)C(=O)O1)c1ccc(Cl)s1 [Rivaroxaban] | 27.89 ± 7.97 | 32.01 ± 9.31 | 34.63 ± 5.57 | 35.92 ± 10.85 | 29.20 ± 6.32 | obviously extended | 6.76 ± 0.30 | 7.20 ± 0.96 | 6.90 ± 0.34 | 6.81 ± 0.22 | 6.70 ± 0.33 | 1484.29 ± 129.00 | 1671.43 ± 236.95 | 0.54 | 0.37 ± 0.09 | 0.31 ± 0.13 | 0.18 ± 0.05 | 1.32 ± 0.16 | 1.38 ± 0.18 | extremely significant decrease | anti-factor Xa activity (factor Xa [5]; 0.5 h-4 h after administration): extremely significant difference; PAF content (x ± SD) ([3]; 0.5 h after administration): 886.43 ± 314.24 ng/L |
| COc1ccc(-n2nc(C(N)=O)c3c2C(=O)N(c2ccc(N4CCCCC4=O)cc2)CC3)cc1 [Apixaban] | 19.05 ± 6.17 | 24.26 ± 7.89 | 23.94 ± 5.49 | 31.71 ± 8.53 | 29.21 ± 11.35 | no obvious extension |  |  |  |  |  | 1543.57 ± 239.95 | 1865.71 ± 371.23 | 1.07 | 0.16 ± 0.10 | 0.26 ± 0.04 | 0.25 ± 0.10 | 1.22 ± 0.22 | 1.12 ± 0.15 | extremely significant decrease | anti-factor Xa activity (factor Xa [5]; 0.5 h-4 h after administration): extremely significant difference; PAF content (x ± SD) ([3]; 2 h after administration): 1117.86 ± 231.52 ng/L |
| Otamixaban | 21.67 ± 9.42 | 25.71 ± 7.68 | 25.61 ± 6.75 | 34.62 ± 7.59 | 30.16 ± 9.37 | no obvious extension | 6.58 ± 0.45 | 6.74 ± 0.26 | 6.52 ± 0.43 | 6.62 ± 0.42 | 7.82 ± 0.31 | 1526.56 ± 212.31 | 1745.52 ± 356.26 | 1.03 | 0.19 ± 0.04 | 0.25 ± 0.10 | 0.26 ± 0.14 | 1.25 ± 0.12 | 1.24 ± 0.06 | decreased significantly | PAF content (x ± SD) ([3]; 2 h after administration): 1123.45 ± 224.51 ng/L; excretion through kidney [7]: less than 25% |
